Assay results as given in patent publication US20240124486A1, “MACROCYCLIC TLR7 AGONIST, PREPARATION METHOD THEREFOR, PHARMACEUTICAL COMPOSITION AND USE THEREOF” (SHANGHAI VISONPHARMA CO., LTD., priority 2020, published 2024).

Columns and labels:
[1] = tested on: human peripheral blood mononuclear cells; assay: IFN-α production by human peripheral blood mononuclear cells stimulated by compounds (ELISA); type: cell-based; details: human PBMC, about 8 hours, supernatant ELISA
Description: • 1. The frozen human peripheral blood mononuclear cells (Miaotong Biotechnology Co., LTD., PB010C) were dissolved in water bath at 37° C. After counting, the cells were diluted to 0.2M/mL, and 150 uL/well was added to the 96-well cell culture plate, and the cells were incubated for 40 hours. • 2. The test compounds were weighed and prepared with DMSO at a concentration of 10 mM. DMSO was used to dilute the test compounds by a 10-fold gradient, with a total of four concentration gradients. The highest concentration was 400 μM. • 3. The test compounds, DMSO control and positive controls were diluted 100 times with cell culture medium (RPMI 1640 cell medium, Gibco), and 50 μL was added to 96-well cell culture plates. • 4. The cells were incubated at 37° C. for about 8 hours, and the supernatant was collected by centrifugation. The level of IFN-α in the supernatant was determined by ELISA (IFN-α ELISA kit, Dakewe). • 5. Light absorption at 450 nm was measured by microplate reader, and IFN-α level in culture supernatant was quantified according to the standard curve.

[2] = biological target: T1, human TLR7 (Homo sapiens, UniProt Q9NYK1); assay: Agonistic activity on human TLR7 in HEK-Blue hTLR7 cell line (QUANTI-Blue reporter); type: cell-based; details: HEK-Blue hTLR7 cells, 16-22 h incubation, absorption at 630 nm; read-out: EC50 value of the agonistic effect on human TLR7
T1 construct: host or cells: HEK-Blue hTLR7 (HEK293-derived reporter cells)
T1 sequence (Q9NYK1 27-1049): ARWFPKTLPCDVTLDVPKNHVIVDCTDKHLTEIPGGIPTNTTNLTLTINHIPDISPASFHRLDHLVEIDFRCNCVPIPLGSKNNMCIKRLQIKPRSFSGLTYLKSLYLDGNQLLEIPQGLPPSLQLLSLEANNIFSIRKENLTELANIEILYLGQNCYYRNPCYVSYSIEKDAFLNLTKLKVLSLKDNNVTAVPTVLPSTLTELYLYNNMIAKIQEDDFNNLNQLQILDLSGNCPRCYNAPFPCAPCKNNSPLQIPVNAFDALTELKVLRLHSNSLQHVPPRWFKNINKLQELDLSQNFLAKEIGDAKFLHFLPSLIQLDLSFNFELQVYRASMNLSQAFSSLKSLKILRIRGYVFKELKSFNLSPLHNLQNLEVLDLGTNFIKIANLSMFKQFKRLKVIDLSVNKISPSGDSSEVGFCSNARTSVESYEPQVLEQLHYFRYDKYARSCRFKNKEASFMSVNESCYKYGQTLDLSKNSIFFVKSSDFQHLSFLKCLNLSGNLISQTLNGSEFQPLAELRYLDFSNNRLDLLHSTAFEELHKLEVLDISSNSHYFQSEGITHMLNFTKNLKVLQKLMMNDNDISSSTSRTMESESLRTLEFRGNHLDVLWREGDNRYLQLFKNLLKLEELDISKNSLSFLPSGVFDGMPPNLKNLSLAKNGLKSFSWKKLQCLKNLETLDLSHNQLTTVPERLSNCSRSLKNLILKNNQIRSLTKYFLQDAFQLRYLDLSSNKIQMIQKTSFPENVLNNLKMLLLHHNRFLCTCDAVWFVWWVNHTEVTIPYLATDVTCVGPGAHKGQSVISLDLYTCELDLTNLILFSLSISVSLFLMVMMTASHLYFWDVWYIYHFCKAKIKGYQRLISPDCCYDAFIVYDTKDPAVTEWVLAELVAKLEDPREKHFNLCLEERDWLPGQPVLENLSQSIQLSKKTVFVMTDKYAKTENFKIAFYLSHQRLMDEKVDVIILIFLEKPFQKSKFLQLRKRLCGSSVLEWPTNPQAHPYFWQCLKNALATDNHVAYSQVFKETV
Description: The TLR7 agonistic activity of the compounds of the invention in HEK-Blue™ hTLR7 cell line with stable expression of human TLR7 were assayed using the following method: • 1. Weighed the test compounds and prepared stock solutions with DMSO (Sigma) at a concentration of 10 mM. […] The highest concentration was 1 mM. • 2. The test compounds and DMSO control were diluted 10-fold in DPBS buffer (Gibco) and then added to a 96-well cell culture plate (Corning) at a volume of 20 μL/well. • 3. HEK-Blue™ hTLR7 cells (Invivogen) were digested with cell separation solution (Gibco), and counted (TC-20 cell counter, Bio-rad). Cells were diluted to 4.4E5/ml using DMEM cell medium (Gibco). Added the cells to a 96-well cell culture plate at a volume of 180 μL/well. The cells were incubated for 16-22 h at 37° C. in a 5% CO2 incubator. • 4. Prepared QUANTI-Blue detection reagent (Invivogen), and added into a new 96-well plate at a volume of 180 μL/well. Twenty μL of cell culture supernatant was transferred from the cell culture plate and added to the 96-well plate and incubated at 37° C. for 1-3 hours. • 5. Neo2 multifunctional microplate reader (Bio-Tek) was used to measure the optical absorption at 630 nm, and the EC50 was calculated by GraphPad Prism.
The agonistic effect of the compounds of the invention on human TLR7 can be determined by the above experiments, and the measured EC50 value is shown in Table 1.

SMILES	EC50 [2] [nM]	IFN-α concentration post stimulation ([1]; compound 0.1 nM) [pg/mL]	IFN-α concentration post stimulation ([1]; compound 1 nM) [pg/mL]	IFN-α concentration post stimulation ([1]; compound 10 nM) [pg/mL]
Nc1nc2nc3c1[nH]c(=O)n3Cc1ccc(Oc3ccc(CNC4CC4)cc3)c(c1)C/C=C\CCO2 [Reference 2, reference compound]	31	8	161	558
CCCCOc1nc(N)c2c(n1)N(Cc1cccc(CN3CCCC3)c1)CC(=O)N2 [Vesatolimod, reference compound]			12	12
Nc1nc2nc3c1[nH]c(=O)n3Cc1ccc(O)c(c1)C/C=C/CCO2 [Reference 3, reference compound]	41	8	9	284
Nc1nc2nc3c1[nH]c(=O)n3Cc1ccc(OC3CCNCC3)c(c1)C/C=C/CCO2 [Reference 1, reference compound]	15	9	74	159

Continued, in another order:

EC50 [2] [nM]	SMILES	IFN-α concentration post stimulation ([1]; compound 0.1 nM) [pg/mL]	IFN-α concentration post stimulation ([1]; compound 1 nM) [pg/mL]	IFN-α concentration post stimulation ([1]; compound 10 nM) [pg/mL]
14	Nc1nc2nc3c1[nH]c(=O)n3Cc1cc3c(c(c1)OCCCCO2)CCN(C1CCC1)C3 [Compound I-60]	12	2412	3127
10	Nc1nc2nc3c1[nH]c(=O)n3Cc1cc(c3c(c1)CN(C1CCC1)CC3)CCCCCO2 [Compound I-37]	428	1973	2078
6	Nc1nc2nc3c1[nH]c(=O)n3Cc1cc(c3c(c1)CCN(C1CCC1)C3)CCCCCO2 [Compound I-51]	530	2759	2472
10	CC(C)N1CCc2c3cc(cc2C1)Cn1c(=O)[nH]c2c(N)nc(nc21)OCCCCC3 [Compound I-35]	251	2767	2776
11	COCCN1CCc2c3cc(cc2C1)Cn1c(=O)[nH]c2c(N)nc(nc21)OCCCCC3 [Compound I-48]	13	2431	2784
105	CC(C)(C(=O)O)N1CCc2c3cc(cc2C1)Cn1c(=O)[nH]c2c(N)nc(nc21)OCCCCC3 [Compound I-26]	12	11	96
2	CC(C)N1CCc2cc3cc(c2C1)CCCCCOc1nc(N)c2[nH]c(=O)n(c2n1)C3 [Compound I-50]	1509	2615	2173
